# Assay results taken from US20260097111A1, “ETHER LIPIDS FOR HYPERACTIVATION OF MAMMALIAN DENDRITIC CELLS” (priority 2022, published 2026).
# Legend:
# human moDC = assay: IL-1β ELISA, human moDC treated with R848, DGP, MCC950; type: cell-based
# Description: Monocyte Isolation, Storage, and Differentiation into moDC. Human leukapheresis blood products were freshly obtained from AllCells via same day or overnight shipping at 4° C. Miltenyi StraightFrom Leukopak CD14 MicroBead isolation kits were used according to manufacturer instructions to isolate CD14+ monocytes. Briefly, leukopaks ranging in quantity from 5×10^9 to 1×10^10 total nucleated cells were evenly aliquoted into 50 mL conical tubes. Cells were incubated with CD14 microbeads and then loaded on the MultiMACS using the program “Possel2”. After washing out the negative population, CD14+ cells were eluted from the columns and counted. An aliquot of monocytes was used to stain for purity of cells to ensure that isolated live cells were […] CD11c+CD14+ by flow cytometry. […] Vials were placed in CoolCell freezing containers and placed in a −80° C. freezer and stored no longer than 1 week. Frozen cells were transferred for long-term storage to the vapor phase of a liquid nitrogen freezer until use.
# To differentiate monocytes into moDC, vials of cells were taken out of the liquid nitrogen freezer and quickly thawed in a 37° C. water bath. Cells were diluted ten-fold in warmed R10++ media containing 50 units/mL benzonase. R10++ media was composed of RPMI 1640 media containing 10% fetal bovine serum, 50 units/mL penicillin, […] streptomycin, 2 mM L-glutamine, 1 mM sodium pyruvate, […] beta-mercaptoethanol, 10 mM HEPES, and 1% Gibco MEM non-essential amino acids. After gentle mixing by inversion of tubes, cells were incubated at 37° C. for 10 min. Cells were pelleted at 400×g for 5 min and supernatant was aspirated. Cells were resuspended in R10++ media and counted on the MoxiGo by diluting an aliquot in PBS containing a final concentration of 2.5 μg/mL propidium iodide. Cells were plated in T75 culture flasks at 3-6×10^7 cells per flask in a total of 20 mL R10++ media containing a final concentration of 50 ng/mL GM-CSF and 25 ng/mL IL-4. Three days after the start of culture, an additional 10 mL R10++ containing 50 ng/mL GM-CSF and 25 ng/mL IL-4 was added to each flask.
# Six days after start of differentiation. R10++ media containing cells were placed into 50 mL conical tubes. Flasks were washed with an additional 10 mL PBS and also collected. […] Cells were resuspended in R10++ media and counted on the MoxiGo by diluting an aliquot in PBS containing a final concentration of 2.5 μg/mL propidium iodide. Cells were then adjusted to 1×10^6 cells/mL in R10++ media.
# moDC Treatment. Human moDC were plated at 1×10^5 cells/well in 96-well flat-bottom tissue culture plates in R10++ media by adding 100 μL of cells per well. To each well, a 25 μL solution of R10++ containing 400 ng/mL GM-CSF and 200 ng/mL IL-4 was added.
# Lyophilized R848 stocks were prepared as described above and frozen at −80° C. An aliquot of frozen R848 was thawed and further diluted to 11.4 μM in R10++ (4 μg/mL R848). Cell culture conditions receiving R848 treatment had 50 μL added to wells. For wells not receiving R848, 50 μL R10++ was added to wells. Lyophilized MCC950 was prepared as described above and stored at −20° C. MCC950 was further diluted to 40 uM in a prepared R10++ solution containing 11.4 μM R848. Cells receiving R848 and MCC950 treatment had 50 μL added to wells. Final concentrations of R848 and MCC950 in a total 200 μL volume were respectively 2.85 μM and 10 μM.
# A4.44% solution of KP407 dissolved in sterile, distilled water was prepared at a temperature of 4° C. […]
# [1] = DGP DP sizing (Malvern Mastersizer 3000); type: physicochemical
# Description: DGP (Compound 2) DP Synthesis. DGP DP was synthesized at a 3 mL scale using the following procedure. […] Sterile 10×PBS was added to the solution resulting in a 1×PBS concentration and 4 mg/mL DGP DP concentration. The mixture was then stirred at 1000 rpm for another 30 min at RT. For DGP DP prepared at 12 or 18 mL scale, the same procedure was followed, with volumes, vials, and stir bars scaled up to achieve the 4 mg/mL DGP DP preparation.
# In cases where DGP DS was micronized prior to use, DGP DS underwent jet milling using an M-50 (Microtech Engineering Company) to reduce DS size to an average of 3-5 μm. […] For in vitro studies, DGP DP samples were sonicated at 2 W (low energy) or 4 W (medium energy) over two 30 s intervals. For in vivo studies, DGP DP samples were sonicated at 3 W over two 30 s intervals as a mid-energy assessment.
# DGP (Compound 2) DP Sizing. DGP DP size was determined using a Malvern Mastersizer 3000 with a Hydro SV attachment. Briefly, DGP DP was diluted to 1 mg/mL in water prior to sizing. The 1 mg/mL DGP DP was added drop-wise to a measurement chamber filled with water under spinning until laser obscuration was 3-5%. Five measurements were taken per sample, with the average of the measurements reported.
# [2] = 18 mL scale, no DS or DP modification
compound,measurement,setting,value
"CCCCCCCCCCCCCCCCCCCCCCOC[C@@H](O)COP(=O)(O)O [Compound 2, 1-docosyl-sn-glycerol-3-phosphate]",concentration of DGP sufficient in combination with R848 to significantly increase IL-1β secretion,human moDC; donor HD94,20.6 µM
same,concentration of DGP sufficient in combination with R848 to significantly increase IL-1β secretion,human moDC; donor HD95,82.5 µM
same,concentration of DGP sufficient in combination with R848 to significantly increase IL-1β secretion,human moDC; donors HD93 and HD96,at least 41.3 uM
same,IL-1β,"human moDC; without addition of R848, DGP 0-82.5 μM, overnight, FIG. 21",less than 100 μg/mL
same,Particulate Size D10,[1]; 3 mL scale,6.83 μm
same,Particulate Size D50,[1]; 3 mL scale,13.8 μm
same,Particulate Size D90,[1]; 3 mL scale,27.5 μm
same,Particulate Size D10,[1]; 12 mL scale,12.0 μm
same,Particulate Size D50,[1]; 12 mL scale,25.0 μm
same,Particulate Size D90,[1]; 12 mL scale,51.7 μm
same,average size,[1]; 12 or 18 mL scale,26-27 μm
same,Particulate Size D10,[1]; [2],12.9 μm
same,Particulate Size D50,[1]; [2],26.7 μm
same,Particulate Size D90,[1]; [2],56.0 μm
